The results in this text go back to US20130324605A1, “USES OF CIMIRACEMATE A AND RELATED COMPOUNDS FOR TREATING INFLAMMATION AND MODULATING IMMUNE RESPONSES” (VERSITECH LIMITED, priority 2010, published 2013).

One may read the inhibition as the share of the control response that was lost under treatment.

In assay [1] the test system is 5-LOX. The assay is described as follows: 5-LOX inhibitor screening assay (Cayman kit). The following applies: 12.5, 25 and 50 μg/ml, linoleic acid substrate, 5 min incubation, FIG. 1A. The format is biochemical. How it is done: The 5-LOX inhibition assay was performed using Cayman's Lipoxygenase Inhibitor Screening Assay Kit (Cayman Chemical Company, Ann Arbor, Mich.) according to the manufacturer's instructions. The 5-LOX enzyme and Linoleic acid (Substrate) were added together in the presence of DMSO (Control) and Cim A at a concentration ranging from 12.5 to 50 μg/ml. After incubation for 5 min, developing agents were added. The production of hydroperoxides was measured and quantified with the use of a microplate reader at wavelength of 490 nm. The 5-LOX enzymatic activity is calculated as nmol/min/ml.
Briefly, 5-LOX inhibition assay was performed by using Cayman's lipoxygenase inhibitor screening assay kit (Cayman Chemical Company, Ann Arbor, Mich.) according to the manufacturer's instructions. The 5-LOX and linoleic acid (substrate) were added simultaneously into dimethyl sulfoxide (DMSO) (Control) or Cim A at a concentration of 12.5, 25, and 50 μg/ml, respectively. After incubation for 5 min, developing reagents for the 5-LOX inhibition assay were added. Hydroperoxide production was measured using a microplate reader at a wavelength of 490 nm. The 5-LOX enzymatic activity is calculated as nmol/min/ml.

The test system of assay [2] is leukotriene B4 (LTB4) production. As to the kind of experiment: Leukotriene B4 production in activated human blood mononuclear cells. The format is cell-based. The following applies: 25 or 50 μg/ml for 1 hour, then calcium ionophore A23187 30 min, PBMC, FIG. 1B. How it is done:
Freshly isolated human blood mononuclear cells (PBMC) (1×10^7) were pre-treated with 0.05% DMSO or Cim A (25 or 50 μg/ml) for 1 h, followed by addition of 5 μM Calcium ionophore A23187 (Sigma Aldrich, St. Louis, Mo.) for 30 min. After centrifugation for 1 min, the supernatants were collected. The level of leukotriene B4 (LTB4) was measured using LTB4 parameter assay kit (R&D Systems, Minneapolis, Minn.).
This Example investigates the effects of Cim A on LTB4 production. Briefly, freshly isolated human blood mononuclear cells (1×10^7) were pretreated with 0.05% DMSO or Cim A (25 or 50 μg/ml) for 1 hour, followed by the addition of calcium ionophore A23187 at a concentration of […] (Sigma Aldrich, St. Louis, Mo.) for 30 min. After centrifugation for 1 min, the supernatant was collected. The level of leukotriene B4 (LTB4) was measured by using a LTB4 assay kit (R&D Systems, Minneapolis, Minn.).

Assay [3] concerns LPS-induced TNF-α protein production. As to the kind of experiment: LPS-induced TNF-α production in primary blood macrophages (ELISA). To be noted: Homo sapiens, Macrophage, PBMac. In kind it is cell-based. How it is done: FIGS. 6A-6B show inhibition of LPS-induced TNF-α production by B22EES1-8-3 and dexamethasone. PBMac were incubated with (A) 140 μM B22EES1-8-3 or (B) 1.3 or 5.1 μM dexamethasone (Dex) for 24 hr prior to the addition of 1 ng/mL and 10 ng/mL LPS for another 24 hr. The culture supernatants were collected and assayed for TNF-α by ELISA. The results shown were the mean values±standard derivation (S.D.) of 6 independent experiments, with cells obtained from different donors. * P<0.05, compared with the corresponding control.
Cell Culture and Primary Blood Macrophage Isolation Human peripheral blood monocytic cells (PBMC) were isolated from the buffy coat of healthy donor blood supplied by Hong Kong Red Cross by Ficoll-Paque (Amersham Pharmacia Biotech, Piscataway, N.J.) density gradient centrifugation as described in our previous reports^36-38. In brief, the buffy coat was spun at 3000 rotations per min (rpm) for 15 min to separate the blood cells and the plasma. The heat inactivated serum was filtered for future use.
The adherent monocytic cells were detached and seeded onto tissue culture plates and incubated for another 7-14 days in order to differentiate the primary blood monocytic cells to primary blood macrophages (PBMac).
Culture supernatants of the LPS-treated PBMac, with or without B22EES1-8-3 pretreatment, were collected at different time intervals and stored at −70° C. The levels of the secreted TNF-α were measured by ELISA kits specific for the cytokine (R&D system, Minneapolis, Minn.).
To confirm the activities of Cim A in suppressing TNF-α production, Cim A was incubated with PBMac for 24 hr prior the addition of LPS at concentrations of 1 ng/mL and 10 ng/mL for 24 hr. The culture supernatants were collected and measured by ELISA for the level of secreted TNF-α.
To further compare the efficiency of Cim A with existing drugs, dexamethasone, a potent immunosuppressive corticosteroid, was used as a prototype. PBMac were treated with dexamethasone for 24 hr prior to the addition of LPS at concentrations of 1 ng/mL and 10 ng/mL for 24 hr.
(An ELISA detects its analyte on a solid surface through an enzyme-linked reagent.)

Assay [4] deals with ERK1/2. As to the kind of experiment: LPS-induced phosphorylation of ERK1/2 in PBMac (Western blot). The format is cell-based, human. The following applies: 140 μM for 24 h prior to 10 ng/mL LPS for 15 min. How it is done: FIGS. 7A-7C show the effects of Cim A (B22EES1-8-3) on LPS-induced phosphorylation (phospho-) of ERK1/2 and p38 MAP kinases, and nuclear translocation of NF-KB p65. PBMac were incubated with B22EES1-8-3 (140 μM) for 24 h prior to the addition of 10 ng/mL LPS for an additional 15 min. Cytoplasmic (A, B) and nuclear (C) proteins were harvested for Western Blotting: (A) Cytoplasmic proteins: phospho-ERK1/2 and total ERK1/2. (B) Cytoplasmic proteins: phospho-p38 and total p38 kinase. (C) Nuclear proteins: upper panel, NF-κB p65 and lamin B; lower panel, the intensity of corresponding lanes in the gel photograph of NF-κB p65 was shown. […]
Whole cell lysate (20 μg) or nuclear protein (2 μg) were separated by sodium dodecyl sulfate polyacrylamide gel electrophoresis (SDS-PAGE) and transferred to nitrocellulose membranes for probing overnight with the respective antibodies specific for the phosphorylated or total form of ERK1/2 and p38 MAPK (Cell Signaling Technology, Beverly, Mass.), NF-KB p65 protein and lamin B (Santa Cruz Biotechnology, Santa Cruz, Calif.). […] In order to quantify the results from the Western blots, the gels were scanned and the intensity of the bands was analyzed by a computer program Quantity One from BioRad. […]
In general terms: Immunoblotting shows a protein as a band on a membrane.

`COc1ccc(/C=C/C(=O)OCC(=O)Cc2ccc(O)c(O)c2)cc1O` [Cim A, Cimiracemate A]: the “5-LOX enzymatic activity (hydroperoxide production)” value in assay [1] is listed as “potently suppressed 5-LOX activity in a dose-dependent manner”. For the same molecule, the “production of LTB4” value in assay [2] is “inhibits the production of LTB4 in a dose-dependent manner”. Besides, the inhibition at 140 µM was determined as 47 ± 19% in assay [3] (140 μM for 24 hr prior to LPS 1 ng/mL for 24 hr) and 58 ± 30% in assay [3] (140 μM for 24 hr prior to LPS 10 ng/mL for 24 hr). Further, the “LPS-induced phosphorylation of ERK1/2” value in assay [4] is listed as “suppressed”.
In assay [3] (1.3 μM for 24 hr prior to LPS for 24 hr), `C[C@@H]1C[C@H]2[C@@H]3CCC4=CC(=O)C=C[C@]4(C)[C@@]3(F)[C@@H](O)C[C@]2(C)[C@@]1(O)C(=O)CO` [dexamethasone, Dexamethasone, reference compound] showed an inhibition at 1.3 µM of 32 ± 7.5%. In addition, the inhibition at 5.1 µM in assay [3] (5.1 μM for 24 hr prior to LPS for 24 hr) worked out at 25 ± 6.3%.
